In brackets after ≈: the same amount, converted by molar mass. Entries after “also recorded” stand apart in the source; their conditions may differ.
How the values were obtained:
[1] = system: B. vulgatus; assay: Prestwick library screen for microbiome-protective antibiotic antagonists (growth AUC z-scores); format: cell-based, Bacteroides vulgatus; settings: z-score of normalized growth AUC, two replicates
[2] = system: B. vulgatus; assay: Validation of microbiome-protective antagonists (concentration-dependent growth rescue); format: cell-based, Bacteroides vulgatus; settings: antagonist gradient, normalized AUC >0.25 = growth rescue
Protocol: Validation of microbiome-protective antagonists: In a first step, the inventors kept the erythromycin/doxycycline concentration constant (0.625 μM for erythromycin, 0.078 μM (B. vulgates)/0.039 μM (B. uniformis) for doxycycline) and tested concentration gradients of the potential antagonists with ranges depending on the antagonist's solubility. Compounds were purchased from independent vendors and dissolved at 100× starting concentration in DMSO. Eight 2-fold serial dilutions were prepared in 96-well plates with each row containing a different antagonist, sufficient control DMSO wells and wells with just the respective antibiotic (‘antibiotic-only’ control). These master plates were diluted in MGAM medium (50 μl) to 2×assay concentration and 25 μl freshly prepared antibiotic solution (4× test concentration) was added. Plates were pre-reduced overnight in an anaerobic chamber and inoculated with 25 μl of overnight cultures (prepared as described under “Growth conditions”) to reach a starting OD578 of 0.01 and 1% DMSO concentration. Growth was monitored hourly for 24 h after 30 sec of linear shaking. Experiments were performed in biological triplicates. For analysis, growth curves were converted into normalized AUCs (see above). The inventors accounted for residual growth in the presence of the antibiotic by subtracting the median normalized AUCs of the ‘antibiotic-only’ control per plate.

[3] = system: B. vulgatus; assay: 8x8 checkerboard assay for anaerobic commensals (antibiotic vs antagonist); format: cell-based, Bacteroides vulgatus; settings: for rescue of B. vulgatus growth from erythromycin: combination with erythromycin
From the text: (§1) Checkerboard assays for anaerobic commensals: Validated antagonists were further investigated in 8×8 checkerboard assays, where both antibiotics and antagonists were titrated against each other. Such assays were first performed for the commensals that were originally screened (i. e. B. vulgatus and B. uniformis—4 replicates) and later expanded towards 6 further gut microbes (B. caccae, B. fragilis NT, B. ovatus, B. thetaiotaomicron, P. copri, P. distasonis—2 replicates). For vertical gradients, 2-fold serial dilutions of the antagonists were prepared first in 100× in DMSO and diluted in MGAM as described above (section ‘Validation of microbiome-protective antagonists’). Horizontal antibiotic dilution series were freshly prepared in MGAM at 4× final concentration in equidistant concentration steps. Both, vertical and horizontal dilution series were combined (50 μl of the antagonist gradients (2×) and 25 μl of the antibiotic gradients (4×)) in 96 well plates. Plates were pre-reduced under anaerobic conditions overnight, inoculated with 25 μl of diluted overnight culture (at 4× starting OD) and sealed with breathable membrane (Breathe-Easy®). Bacterial growth was monitored once per hour for 24 hours after 30 sec linear shaking (Eon+Biostack 4, Biotek) under anaerobic conditions. Growth curves were converted into normalized AUCs as described using in-plate controls to define unperturbed growth.

[4] = system: abundant gut commensal species; assay: Checkerboard assays on further abundant gut commensals; format: cell-based; settings: for tested abundant gut commensal species whose growth is rescued: antidote 5-40 μm, clinically relevant erythromycin concentrations; for counteracting erythromycin on other abundant gut commensals: checkerboard with erythromycin
From the text: as §1

[5] = system: E. faecium; assay: Checkerboard assays for pathogens under aerobic conditions; format: cell-based
Protocol: (§2) Checkerboard assays for pathogens under aerobic conditions: For three pathogens (S. aureus Newman ATCC 13420, S. aureus subsp. aureus Rosenbach 1884 DSM20231 and E. faecium ATCC19434) 8×8 checkerboard assays were performed in transparent 384 well plates (Greiner BioOne GmbH), with each well containing 30 μl (50 μl for S. pneumoniae) in total. S. aureus strains were grown in tryptic soy broth, E. faecium in BHI medium. Antagonistic drug concentrations were 2-fold distant. Cell were inoculated at initial OD595 nm 0.01 from an overnight culture. Plates were sealed with breathable membranes (Breathe-Easy), incubated at 37° C. (Cytomat 2, Thermo Scientific) with continuous shaking and OD595 nm was measured every 30 minutes for 16 hours in a Filtermax F5 multimode plate reader (Molecular Devices). Growth was evaluated at the transition to stationary phase (9 hours for S. aureus, 12 hours for E. faecium). All experiments were done at least in 2 biological replicates and 2 technical replicates. For S. pneumoniae […], the inventors only tested concentration gradients of the potential antagonists in constant concentration of the antibiotics in BHI medium.

[6] = system: Staphylococcus aureus; assay: as above; format: cell-based; settings: for effect on the potency of erythromycin: Staphylococcus aureus, aerobic
Protocol: as §2

[7] = system: Streptococcus pneumoniae; assay: Antagonist concentration gradients at constant antibiotic concentration, aerobic; format: cell-based
Protocol: as §2

[8] = system: species of the order Bacteroidales; assay: Antidote vs azithromycin across seven gut Bacteroidales (Example 4); format: cell-based; settings: combination with azithromycin
Protocol: The antidotes dicumarol (first column), benzbromarone (second column) and tolfenamic acid (third column) were tested for their efficacy in antagonizing the macrolide antibiotic azithromycin across seven prevalent and abundant gut Bacteroidales (B. vulgatus, B. fragilis NT, B. thetaiotaomicron, P. copri, B. caccae, B. ovatus, P. distasonis). […] All drug concentrations are in μM.
In particular, they aimed at testing, whether these antidotes can also protect from other macrolides such as azithromycin, a clinically more relevant antibiotic.

[9] = system: synthetic gut commensal community of seven human gut commensals; assay: Synthetic gut commensal community growth with macrolide and antidote (Example 5); format: cell-based; settings: erythromycin and azithromycin
From the text: Heat maps depict area under the growth curve (AUC) of a synthetic community consisting of seven human gut commensals. Shown is the median AUC of three individual replicates. All drug concentrations are in μM.
So far, antidote effects have only been analyzed in single or pure cultures. However, the human gut microbiome is a complex community of many different bacterial taxa that is usually not adequately mimicked in monocultures.

[10] = system: E. faecalis; assay: Antidote with macrolide on enterococci (Example 6); format: cell-based, Enterococcus faecalis
From the text: Heat maps show median area under the growth curve (AUC) of three biologically independent replicates. […] All drug concentrations are in μM.
Here, the inventors expanded testing towards additional antidotes, and included the intestinal human pathogen Enterococcus faecalis.

[11] = system: E. faecium; assay: Antidote with macrolide on enterococci (Example 6); format: cell-based
[12] = system: seven-member synthetic community including the pathogen E. faecalis; assay: E. faecalis-containing synthetic community, community growth AUC (Example 7); format: cell-based
From the text: (§3) Heat maps show median area under the growth curve (AUC) of the seven-member synthetic community including the pathogen E. faecalis. The numbers within the heat map represent the total number of all E. faecalis viable cells for each erythromycin-antidote combination as determined by enumerating of E. faecalis colony forming units after plating on selective medium. All drug concentrations are in μM. n. d.=not detectable.
(§4) The inventors exposed synthetic communities that contained the intestinal gut pathogen E. faecalis to erythromycin, and evaluated rescue of gut commensals and simultaneous killing of the pathogen in the presence of antidotes.

[13] = system: E. faecalis; assay: E. faecalis-containing synthetic community, E. faecalis CFU on selective medium (Example 7); format: cell-based, Enterococcus faecalis
From the text: as §3, §4

[14] = system: B. vulgatus; assay: Growth curves and time-lapse microscopy under erythromycin; format: cell-based, Bacteroides vulgatus; settings: 15 μg/ml erythromycin (5-fold MIC), time-lapse microscopy
Protocol: (§5) Microscopy: For live/dead imaging, stained cells were washed twice in 0.85% NaCl before being spotted on 0.85% NaCl+1% agarose pads between a glass slide and a coverslip. For time-lapse imaging, cells were precultured as described in the growth conditions section. […] Slides were sealed with valap and taken outside of the chamber for imaging. The imaging was performed using a Nikon Eclipse Ti inverted microscope, equipped with a Nikon DS-Qi2 camera, a Nikon Plan Apo Lambda 60× oil Ph3 DM phase contrast objective and a Nikon HC mCherry filter set (Ex 562/40; DM 593; BA 641/75) to detect propidium iodide fluorescence. Images were acquired with the NIS-Elements AR4.50.00 software and processed with Fiji v.2.0.0-rc-68/1.52 h.
(§6) Growth curves: Cells were precultured as described in the growth conditions section. Then, cells were diluted to an OD578=0.01 in a 96-well plate sealed with a breathable membrane (Breathe-Easy®) and grown for 2 h. Next, erythromycin was added to the culture to a final concentration of 15 μg/ml (5-fold MIC) and growth curves were acquired for 20 h using a microplate spectrophotometer (EON, Biotek) by measuring the OD578 every hour after 30 sec of linear shaking.

[15] = system: B. uniformis; assay: as above; format: cell-based, Bacteroides uniformis; settings: 15 μg/ml erythromycin (5-fold MIC), time-lapse microscopy
Protocol: as §5, §6

[16] = system: Staphylococcus; settings: cited from earlier work
[17] = system: S. pneumoniae; settings: cited from earlier work
[18] = system: Streptococcus groups A, B, C & G; settings: cited from earlier work
[19] = Erythromycin 0.625 μM + 20 μM drug
[20] = erythromycin 1.15 μM + 40 μM dicumarol or 20 μM benzbromarone

Q: Which Mean z-score ([1]; Doxycycline 0.08 μM + 20 μM drug) does the source give for Cc1c(Cl)cccc1Nc1ccccc1C(=O)O [Tolfenamic acid] here?
A: 4.000

Q: What about the Mean z-score [1, 19] of the same compound?
A: 7.381

Q: And the Validation ([2]; Doxycycline 0.078 μM constant)?
A: TRUE

Q: And the Validation ([2]; Erythromycin 0.625 μM constant)?
A: TRUE

Q: What about the “rescue of B. vulgatus growth from doxycycline” value ([3]; combination with doxycycline) of the same compound?
A: able to protect

Q: What about the “rescue of B. vulgatus growth from erythromycin” value [3] of the same compound?
A: able to protect; also recorded: can rescue the growth

Q: What about the “tested abundant gut commensal species whose growth is rescued” value [4] of the same compound?
A: 5/7

Q: And the “counteracting erythromycin on other abundant gut commensals” value [4]?
A: able to counteract erythromycin on several species

Q: What about the “drug interaction with erythromycin in checkerboard” value [5] of the same compound?
A: neutral interactions

Q: What about the “drug interaction with erythromycin in checkerboard” value ([6]; S. aureus, aerobic conditions) of the same compound?
A: neutral interactions

Q: And the “effect on the potency of erythromycin” value [6]?
A: did not affect the potency

Q: And the “effect on the potency of erythromycin” value [7]?
A: did not affect the potency

Q: And the “protection of Bacteroidales species from azithromycin” value [8]?
A: can be Protected

Q: And the “protection (growth rescue) of synthetic gut commensal community from macrolide antibiotics” value [9]?
A: can be Protected

Q: What about the “interaction with antibacterial effects of erythromycin/azithromycin” value [10] of the same compound?
A: synergized

Q: And the “rescue from erythromycin or azithromycin treatment” value [10]?
A: Neither dicumarol nor benzbromarone or tolfenamic acid could rescue

Q: What about the “interaction with antibacterial effects of erythromycin/azithromycin” value [11] of the same compound?
A: synergized

Q: What about the “rescue from erythromycin or azithromycin treatment” value [11] of the same compound?
A: Neither dicumarol nor benzbromarone or tolfenamic acid could rescue

Q: Which Mean z-score [1, 19] does the source give for O=c1oc2ccccc2c(O)c1Cc1c(O)c2ccccc2oc1=O [Dicumarol, 3,3′-Methylene-bis(4-hydroxycoumarin)] here?
A: 7.313

Q: And the Validation ([2]; Erythromycin 0.625 μM constant)?
A: TRUE

Q: And the “rescue of B. vulgatus growth from erythromycin” value [3]?
A: rescued; also recorded: can rescue the growth

Q: What about the “tested abundant gut commensal species whose growth is rescued” value [4] of the same compound?
A: 5/7

Q: What about the “counteracting erythromycin on other abundant gut commensals” value [4] of the same compound?
A: able to counteract erythromycin on several species

Q: What about the “effect on the potency of erythromycin” value [6] of the same compound?
A: did not affect the potency

Q: What about the “effect on the potency of erythromycin” value [7] of the same compound?
A: did not affect the potency

Q: What about the “protection of Bacteroidales species from azithromycin” value [8] of the same compound?
A: can be Protected

Q: And the “protection (growth rescue) of synthetic gut commensal community from macrolide antibiotics” value [9]?
A: can be Protected

Q: What about the “rescue from erythromycin or azithromycin treatment” value [10] of the same compound?
A: Neither dicumarol nor benzbromarone or tolfenamic acid could rescue

Q: And the “rescue from erythromycin or azithromycin treatment” value [11]?
A: Neither dicumarol nor benzbromarone or tolfenamic acid could rescue

Q: And the “community growth (AUC)” value [12, 20]?
A: the community is rescued

Q: And the “rescue of the community despite erythromycin treatment” value ([12]; erythromycin + antidote)?
A: rescue of the community

Q: What about the E. faecalis counts [13, 20] of the same compound?
A: drop/are still found at below the detection limit

Q: And the “E. faecalis cells in community under erythromycin + antidote” value ([13]; erythromycin + antidote)?
A: efficiently inhibited

Q: For CC[C@H]1OC(=O)[C@H](C)[C@@H](O[C@H]2C[C@@](C)(OC)[C@@H](O)[C@H](C)O2)[C@H](C)[C@@H](O[C@@H]2O[C@H](C)C[C@H](N(C)C)[C@H]2O)[C@](C)(O)C[C@@H](C)C(=O)[C@H](C)[C@@H](O)[C@]1(C)O [Erythromycin, erythromycin], which “cell morphology / lysis” value [14] is on record?
A: cell shape defects, including blebbing, cytoplasmic shrinkage, and ultimately cell lysis

Q: And the “cell morphology / lysis” value [15]?
A: cell shape defects, including blebbing, cytoplasmic shrinkage, and ultimately cell lysis

Q: And the “community growth (AUC)” value ([12]; erythromycin 1.15 μM alone)?
A: partially inhibited

Q: And the “E. faecalis cells in the community” value ([13]; erythromycin 1.15 μM alone)?
A: ~9×10^5 cells

Q: And the MIC breakpoint [16]?
A: 1 µg/mL (≈ 1.36 µM)

Q: What about the MIC breakpoint [17] of the same compound?
A: 0.25 µg/mL (≈ 0.341 µM)

Q: What about the MIC breakpoint [18] of the same compound?
A: 0.25 µg/mL (≈ 0.341 µM)

From patent US20220387466A1, “COMPOUNDS AND PHARMACEUTICAL COMPOSITIONS FOR PREVENTION AND/OR TREATMENT OF DYSBIOSIS AND ANTIBACTERIAL ANTIDOTES FOR MICROBIOME-PROTECTION” (priority 2019, published 2022)
